From patent publication US6914045B2, “Glycopeptide antibiotics” (Wyeth Holdings Corporation, priority 2001, dated 2005)
≈ marks a conversion by molar mass, not a printed value.

Legend:
Experiment in all cases: in vitro antibacterial evaluation, MIC by broth dilution
Type in all cases: cell-based
Escherichia coli = details: 18 hours at 35° C.
Staphylococcus sp. = details: broth dilution, 18 hours at 35° C.; for MIC Staphylococcus aureus (GC 1131): strain GC 1131
Summary of the method: (§1)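 Inoculum 5×10^5 CFU/mL; concentrations 64 to 0.06 μg/mL; MIC defined as lowest inhibitory level. Conducted by broth dilution under NCCLS guidelines.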

Streptococcus sp. = details: broth dilution, 18 hours at 35° C.
Summary of the method: as §1

Enterococcus sp. = details: broth dilution, 18 hours at 35° C.
Summary of the method: as §1

## N=C1NCC(C(O)C2NC(=O)C(Cc3ccc(OC4OC(CO)C(OC5OC6COC(CCc7ccccc7)OC6C(O)C5O)C(O)C4O)cc3)NC(=O)C(CC3CCCCC3)NC(=O)CNC(=O)C(CO)NC(=O)C(C(O)C3CNC(=N)N3C3OC(CO)C(O)C(O)C3O)NC2=O)N1 (stereo not shown) [Example 198]
Escherichia coli
  MIC Escherichia coli (ATCC 25922): 32 µg/mL (≈ 22.8 µM)
  MIC Escherichia coli (GC 4559): 32 µg/mL (≈ 22.8 µM)
  MIC Escherichia coli (GC 4560): 1 µg/mL (≈ 0.713 µM)
Staphylococcus sp.; inoculum 5×10^5 CFU/mL
  MIC Staphylococcus aureus (GC 1131): 1 µg/mL (≈ 0.713 µM)
Staphylococcus sp.; strain ATCC 29213
  MIC Staphylococcus aureus (ATCC 29213): 0.5 µg/mL (≈ 0.356 µM)
Staphylococcus sp.
  MIC Staphylococcus aureus (GC 1131): 1 µg/mL (≈ 0.713 µM)
Staphylococcus sp.; strain GC 3051
  MIC Staphylococcus aureus (GC 3051): 0.5 µg/mL (≈ 0.356 µM)
Staphylococcus sp.; strain GC 3053
  MIC Staphylococcus aureus (GC 3053): 0.5 µg/mL (≈ 0.356 µM)
Staphylococcus sp.; strain GC 4541
  MIC Staphylococcus aureus (GC 4541): 0.5 µg/mL (≈ 0.356 µM)
Staphylococcus sp.; strain GC 4542
  MIC Staphylococcus aureus (GC 4542): 0.25 µg/mL (≈ 0.178 µM)
Staphylococcus sp.; strain GC 4543
  MIC Staphylococcus aureus-SMITH (GC 4543): 0.5 µg/mL (≈ 0.356 µM)
Staphylococcus sp.; strain GC 4544
  MIC Staphylococcus aureus (GC 4544): 0.5 µg/mL (≈ 0.356 µM)
Staphylococcus sp.; strain GC 4545
  MIC Staphylococcus aureus (GC 4545): 0.5 µg/mL (≈ 0.356 µM)
Staphylococcus sp.; strain GC 4546
  MIC Staphylococcus haemolyticus (GC 4546): 0.5 µg/mL (≈ 0.356 µM)
Staphylococcus sp.; strain GC 4547
  MIC Coagulase Negative Staphylococcus (GC 4547): 1 µg/mL (≈ 0.713 µM)
Staphylococcus sp.; strain GC 4548
  MIC Coagulase Negative Staphylococcus (GC 4548): <0.12 µg/mL
Staphylococcus sp.; strain GC 4549
  MIC Coagulase Negative Staphylococcus (GC 4549): 0.5 µg/mL (≈ 0.356 µM)
Staphylococcus sp.; strain GC 4551
  MIC Coagulase Negative Staphylococcus (GC 4551): 0.5 µg/mL (≈ 0.356 µM)
Streptococcus sp.
  MIC Streptococcus agalactiae (GC 4564): <0.12 µg/mL
  MIC Streptococcus pneumoniae (ATCC 6301): <0.12 µg/mL
  MIC Streptococcus pneumoniae (GC 1894): <0.12 µg/mL
  MIC Streptococcus pneumoniae (GC 4565): <0.12 µg/mL
  MIC Streptococcus pyogenes (GC 4563): <0.12 µg/mL
Streptococcus sp.; inoculum 5×10^5 CFU/mL, strain ATCC 6301
  MIC Streptococcus pneumoniae (ATCC 6301): <0.12 µg/mL
Streptococcus sp.; inoculum 5×10^5 CFU/mL, strain GC 1894
  MIC Streptococcus pneumoniae (GC 1894): <0.12 µg/mL
Streptococcus sp.; inoculum 5×10^5 CFU/mL, strain GC 4563
  MIC Streptococcus pyogenes (GC 4563): <0.12 µg/mL
Streptococcus sp.; inoculum 5×10^5 CFU/mL, strain GC 4564
  MIC Streptococcus agalactiae (GC 4564): <0.12 µg/mL
Streptococcus sp.; inoculum 5×10^5 CFU/mL, strain GC 4565
  MIC Streptococcus pneumoniae (GC 4565): <0.12 µg/mL
Enterococcus sp.
  MIC Enterococcus avium (GC 4558): 1 µg/mL (≈ 0.713 µM)
  MIC Enterococcus faecalis (ATCC 29212): 1 µg/mL (≈ 0.713 µM)
  MIC Enterococcus faecalis (GC 2242): 1 µg/mL (≈ 0.713 µM)
  MIC Enterococcus faecalis (GC 2691): 1 µg/mL (≈ 0.713 µM)
  MIC Enterococcus faecalis (GC 3059): 1 µg/mL (≈ 0.713 µM)
  MIC Enterococcus faecalis (GC 4552): 1 µg/mL (≈ 0.713 µM)
  MIC Enterococcus faecalis (GC 4553): 1 µg/mL (≈ 0.713 µM)
  MIC Enterococcus faecalis (GC 4554): 1 µg/mL (≈ 0.713 µM)
  MIC Enterococcus faecalis (GC 6189): 1 µg/mL (≈ 0.713 µM)
  MIC Enterococcus faecium (GC 2243): 1 µg/mL (≈ 0.713 µM)
  MIC Enterococcus faecium (GC 4556): 1 µg/mL (≈ 0.713 µM)
  MIC Enterococcus faecium (GC 4557): 1 µg/mL (≈ 0.713 µM)
Enterococcus sp.; inoculum 5×10^5 CFU/mL, strain ATCC 29212
  MIC Enterococcus faecalis (ATCC 29212): 1 µg/mL (≈ 0.713 µM)
Enterococcus sp.; inoculum 5×10^5 CFU/mL, strain GC 2242
  MIC Enterococcus faecalis (GC 2242): 1 µg/mL (≈ 0.713 µM)
Enterococcus sp.; inoculum 5×10^5 CFU/mL, strain GC 2243
  MIC Enterococcus faecium (GC 2243): 1 µg/mL (≈ 0.713 µM)
Enterococcus sp.; inoculum 5×10^5 CFU/mL, strain GC 2691
  MIC Enterococcus faecalis (GC 2691): 1 µg/mL (≈ 0.713 µM)
Enterococcus sp.; inoculum 5×10^5 CFU/mL, strain GC 3059
  MIC Enterococcus faecalis (GC 3059): 1 µg/mL (≈ 0.713 µM)
Enterococcus sp.; inoculum 5×10^5 CFU/mL, strain GC 4552
  MIC Enterococcus faecalis (GC 4552): 1 µg/mL (≈ 0.713 µM)
Enterococcus sp.; inoculum 5×10^5 CFU/mL, strain GC 4553
  MIC Enterococcus faecalis (GC 4553): 1 µg/mL (≈ 0.713 µM)
Enterococcus sp.; inoculum 5×10^5 CFU/mL, strain GC 4554
  MIC Enterococcus faecalis (GC 4554): 1 µg/mL (≈ 0.713 µM)
Enterococcus sp.; inoculum 5×10^5 CFU/mL, strain GC 4556
  MIC Enterococcus faecium (GC 4556): 1 µg/mL (≈ 0.713 µM)
Enterococcus sp.; inoculum 5×10^5 CFU/mL, strain GC 4557
  MIC Enterococcus faecium (GC 4557): 1 µg/mL (≈ 0.713 µM)
Enterococcus sp.; inoculum 5×10^5 CFU/mL, strain GC 4558
  MIC Enterococcus avium (GC 4558): 1 µg/mL (≈ 0.713 µM)
Enterococcus sp.; inoculum 5×10^5 CFU/mL, strain GC 6189
  MIC Enterococcus faecalis (GC 6189): 1 µg/mL (≈ 0.713 µM)
